Usually EC50 stands for the concentration needed to bring the measured effect to its halfway point.

The target of the experiment is T1, human GPR119 (Homo sapiens, UniProt Q8TDV5).
T1 construct: expressed in transfected cells
T1 sequence (Q8TDV5 1-335): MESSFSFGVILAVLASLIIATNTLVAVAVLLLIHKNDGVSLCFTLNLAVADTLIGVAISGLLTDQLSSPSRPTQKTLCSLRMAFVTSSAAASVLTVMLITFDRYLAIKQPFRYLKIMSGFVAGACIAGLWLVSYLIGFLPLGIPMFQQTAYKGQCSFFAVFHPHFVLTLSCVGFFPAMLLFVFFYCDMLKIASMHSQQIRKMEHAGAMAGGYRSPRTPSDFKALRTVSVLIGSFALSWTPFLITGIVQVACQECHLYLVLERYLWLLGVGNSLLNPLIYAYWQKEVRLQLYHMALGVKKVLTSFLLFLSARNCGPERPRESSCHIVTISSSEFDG
In words: Functional cellular assay measuring GPR119-mediated cAMP release (HTRF) in HEK-293 cells stably expressing recombinant human GPR119. Format: cell-based. To be noted: cAMP response, cell line expressing human GPR119, 30 minutes at room temperature. The essentials:
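HEK-293 cells stably expressing recombinant human GPR119, suspended at 400000 cells/mL in HBSS/20 mM HEPES/0.1% BSA/2 mM IBMX, exposed to compound for 30 minutes at room temperature. cAMP detected by HTRF (665/620 nm ratio) after 1 h with reagents in lysis buffer. EC50 taken as concentration giving 50% of maximal activation.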
A general note: In TR-FRET formats the signal depends on donor and acceptor labels being close together.

For the compound `CN(C)C(=O)CN1Cc2c(F)cc(N3CC[C@@H](Oc4ccc(OCC5CCC5)nc4)C3=O)cc2C1=O` [Example 6-04, 2-[6-[(3R)-3-[[6-(cyclobutylmethoxy)-3-pyridyl]oxy]-2-oxo-pyrrolidin-1-yl]-4-fluoro-1-oxo-isoindolin-2-yl]-N,N-dimethyl-acetamide], the EC50 worked out at 35 nM.

The values above are taken from patent US9908868B2, “Isoindolinone compounds as GPR119 modulators for the treatment of diabetes, obesity, dyslipidemia and related disorders” (SANOFI, priority 2014, dated 2018).
